Assays:
Human pancreatic lipase = target: T1, Human pancreatic lipase (Homo sapiens, UniProt P16233); assay: Lipase assay (Sigma Lipase-PS Kit); assay type: biochemical; details: same top concentration (0.15 mg/ml)
T1 construct: purchased Sigma
T1 sequence (P16233 17-465): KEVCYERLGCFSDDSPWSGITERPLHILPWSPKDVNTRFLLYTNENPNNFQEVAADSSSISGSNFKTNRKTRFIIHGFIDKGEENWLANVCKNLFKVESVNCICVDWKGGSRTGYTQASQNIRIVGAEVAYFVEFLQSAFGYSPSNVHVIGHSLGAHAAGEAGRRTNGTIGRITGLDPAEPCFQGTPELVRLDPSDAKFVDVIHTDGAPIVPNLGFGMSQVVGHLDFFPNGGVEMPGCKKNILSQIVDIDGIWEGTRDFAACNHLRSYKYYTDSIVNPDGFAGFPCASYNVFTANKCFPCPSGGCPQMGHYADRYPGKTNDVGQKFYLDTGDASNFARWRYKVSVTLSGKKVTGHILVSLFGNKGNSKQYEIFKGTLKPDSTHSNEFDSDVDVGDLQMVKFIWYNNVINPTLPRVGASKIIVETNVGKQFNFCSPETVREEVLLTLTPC
T1 sequence (P02703 23-112 partner): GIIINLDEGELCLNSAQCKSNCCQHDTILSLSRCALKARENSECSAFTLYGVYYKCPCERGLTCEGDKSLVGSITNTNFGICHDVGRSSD
Description: (§1) The purified compounds and extracts were made up 2 mg/ml solutions in water using initially a drop of DMSO if required for solubility.
Sigma Lipase-PS Kit (Catalogue Number 805-A)
Human pancreatic lipase was diluted 1.5:5 prior to use. […] Color formation was measured at 550 nm after 30 minutes.

[1] = target: T2, porcine pancreatic amylase (Sus scrofa, UniProt P00690); assay: Amylase assay (Sigma INFINITY reagent); assay type: biochemical, pig; details: tested at 0.12 mg/ml, mean n=3
T2 construct: purchased Sigma A6255
T2 sequence (P00690 16-511): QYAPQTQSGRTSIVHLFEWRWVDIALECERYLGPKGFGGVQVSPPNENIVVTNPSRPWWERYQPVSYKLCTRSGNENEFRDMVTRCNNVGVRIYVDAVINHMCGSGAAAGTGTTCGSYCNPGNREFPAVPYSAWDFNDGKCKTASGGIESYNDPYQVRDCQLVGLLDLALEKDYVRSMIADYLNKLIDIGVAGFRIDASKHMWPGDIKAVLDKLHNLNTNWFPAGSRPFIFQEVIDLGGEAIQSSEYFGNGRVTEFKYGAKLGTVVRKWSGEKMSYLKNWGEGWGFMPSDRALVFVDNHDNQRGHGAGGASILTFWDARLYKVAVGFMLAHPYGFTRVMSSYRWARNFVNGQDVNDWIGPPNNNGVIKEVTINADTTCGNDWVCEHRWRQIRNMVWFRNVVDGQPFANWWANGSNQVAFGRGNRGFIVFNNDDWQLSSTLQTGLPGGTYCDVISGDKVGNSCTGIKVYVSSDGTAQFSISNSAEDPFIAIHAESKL
Description: as §1
Sigma INFINITY Powder Reagent (Catalogue Number 568-20)
Sigma α-amylase (A6255, porcine pancreatic amylase as saline suspension), diluted to 35 units/ml. […] The rate of color formation was measured over five minutes, after which the final absorbance was measured at 405 nm as an endpoint recording.

[2] = system: α-glucosidase (G5003, from S. cerevisiae); assay: α-Glucosidase assay (p-nitrophenyl-α-D-glucopyranoside); assay type: biochemical; details: tested at 0.28 mg/ml, mean n=3
Description: as §1

Compound	inhibition at 150 µg/mL (Human pancreatic lipase) [%]	α-amylase inhibition (in words, FIG. 2) [1]	α-glucosidase inhibition (in words, FIG. 2) [2]
CCCCCCCCCCC[C@@H](C[C@@H]1OC(=O)[C@H]1CCCCCC)OC(=O)[C@H](CC(C)C)NC=O [Orlistat]	≤ 60	–	–
COc1cc(O)c2c(=O)c(O[C@@H]3O[C@@H](C)[C@H](O)[C@@H](O)[C@H]3O)c(-c3ccc(O)c(O)c3)oc2c1 [compound 3, rhamnitrin]	–	inhibition to be restored	–
quercitrin-3-O″-acetate [compound 5]	–	inhibition to be restored	promoted the glucosidase activity
Oc1ccc(/C=C2\c3cc(O)cc(O)c3C(c3ccc(O)cc3)C2c2cc(O)cc(O)c2)cc1 (stereo not drawn) [compound 6, parthenocissin A]	–	good inhibition	–
Oc1ccc(C=C2c3c(O)cc(O)cc3C(c3ccc(O)cc3)C2c2cc(O)ccc2O)cc1 (stereo not drawn) [compound 7, 3-(4-hydroxybenzylidene)-2-(2,5-dihydroxyphenyl)-1-(4-hydroxyphenyl)indane-4,6-diol]	–	–	fairly specific as an inhibitor

— patent US8362090B2, “Methods and related compositions using specific flavonoids and indanes to reduce weight and inhibit lipase, α-amylase and α-glucosidase activity in mammals” (Gateway Health Alliances, Inc., priority 2007, dated 2013)
